Assay results taken from PubChem BioAssay AID256 (DTP/NCI, 2004).
Inconclusive results and toxic doses are left out. How the source made its calls: active means survival T/C of 150% or more; inactive means T/C below 125% in these data.

Tested on: CD2F1 mice, L1210 leukemia ip, survival T/C
Test: NCI In Vivo Anticancer Drug Screen. Data for tumor model L1210 Leukemia (intraperitoneal) in CD2F1 (CDF1) mice
Details: higher = longer survival
Summary of the method: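 Mice carrying a transplanted tumor received test compound or vehicle alone. The value is the measurement in the treated group divided by that in the vehicle-treated control group.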

[1] = endpoint: mean survival time, dose: 100.0 mg/kg/injection, schedule: Q04DX003 (ip), vehicle: saline with Tween-80
[2] = endpoint: mean survival time, dose: 200.0 mg/kg/injection, schedule: Q04DX003 (ip), vehicle: saline with Tween-80
[3] = endpoint: mean survival time, dose: 100.0 mg/kg/injection, schedule: Q01DX001 (ip), vehicle: saline with Tween-80
[4] = endpoint: mean survival time, dose: 200.0 mg/kg/injection, schedule: Q01DX001 (ip), vehicle: saline with Tween-80
[5] = endpoint: mean survival time, dose: 400.0 mg/kg/injection, schedule: Q01DX001 (ip), vehicle: saline with Tween-80

Measured: T/C

c1ccc([B-]2([C+]3CCCCC3)N3CCCCC3C3CCCCN32)cc1 (centres undefined)
inactive: endpoint: mean survival time, dose: 3.12 mg/kg/injection, schedule: Q01DX009 (ip), vehicle: saline 90 % of control | endpoint: mean survival time, dose: 6.25 mg/kg/injection, schedule: Q01DX009 (ip), vehicle: saline 95 % of control | endpoint: mean survival time, dose: 12.5 mg/kg/injection, schedule: Q01DX009 (ip), vehicle: saline 101 % of control | endpoint: mean survival time, dose: 25.0 mg/kg/injection, schedule: Q01DX009 (ip), vehicle: saline 102 % of control | endpoint: mean survival time, dose: 50.0 mg/kg/injection, schedule: Q01DX009 (ip), vehicle: saline 86 % of control

CN(C)C1C(c2ccccc2)S(=O)(=O)C1(C)C (centres undefined)
inactive: endpoint: mean survival time, dose: 100.0 mg/kg/injection, schedule: Q01DX001 (ip), vehicle: saline 100 % of control | endpoint: mean survival time, dose: 100.0 mg/kg/injection, schedule: Q04DX003 (ip), vehicle: saline 96 % of control | endpoint: mean survival time, dose: 200.0 mg/kg/injection, schedule: Q01DX001 (ip), vehicle: saline 100 % of control | endpoint: mean survival time, dose: 200.0 mg/kg/injection, schedule: Q04DX003 (ip), vehicle: saline 101 % of control | endpoint: mean survival time, dose: 400.0 mg/kg/injection, schedule: Q01DX001 (ip), vehicle: saline 100 % of control | endpoint: mean survival time, dose: 400.0 mg/kg/injection, schedule: Q04DX003 (ip), vehicle: saline 97 % of control

C=CS(=O)(=O)c1ccccc1
inactive: endpoint: mean survival time, dose: 18.0 mg/kg/injection, schedule: Q01DX009 (ip), vehicle: saline with Tween-80 96 % of control | endpoint: mean survival time, dose: 36.0 mg/kg/injection, schedule: Q01DX009 (ip), vehicle: saline with Tween-80 93 % of control | endpoint: mean survival time, dose: 72.0 mg/kg/injection, schedule: Q01DX009 (ip), vehicle: saline with Tween-80 112 % of control

Oc1c(Cl)cc(Cl)cc1CN(Cc1cc(Cl)cc(Cl)c1O)c1ccccc1
inactive: endpoint: mean survival time, dose: 12.5 mg/kg/injection, schedule: Q01DX009 (ip), vehicle: Klucel (hydroxypropylcellulose) (HPC) 103 % of control | endpoint: mean survival time, dose: 25.0 mg/kg/injection, schedule: Q01DX009 (ip), vehicle: Klucel (hydroxypropylcellulose) (HPC) 102 % of control | endpoint: mean survival time, dose: 50.0 mg/kg/injection, schedule: Q01DX009 (ip), vehicle: Klucel (hydroxypropylcellulose) (HPC) 101 % of control | endpoint: mean survival time, dose: 100.0 mg/kg/injection, schedule: Q01DX009 (ip), vehicle: Klucel (hydroxypropylcellulose) (HPC) 100 % of control | endpoint: mean survival time, dose: 200.0 mg/kg/injection, schedule: Q01DX009 (ip), vehicle: Klucel (hydroxypropylcellulose) (HPC) 100 % of control | endpoint: mean survival time, dose: 400.0 mg/kg/injection, schedule: Q01DX009 (ip), vehicle: Klucel (hydroxypropylcellulose) (HPC) 94 % of control

O=C(C=C(C(F)(F)F)C(F)(F)F)c1ccc(C(=O)C=C(C(F)(F)F)C(F)(F)F)cc1
inactive: [1] 105 % of control | [2] 93 % of control

CC(=O)c1ccc(N=NN(C)C)cc1
inactive: endpoint: mean survival time, dose: 2.37 mg/kg/injection, schedule: Q01DX009 (ip), vehicle: Klucel (hydroxypropylcellulose) (HPC) 96 % of control | endpoint: mean survival time, dose: 9.5 mg/kg/injection, schedule: Q01DX009 (ip), vehicle: Klucel (hydroxypropylcellulose) (HPC) 96 % of control | endpoint: mean survival time, dose: 19.0 mg/kg/injection, schedule: Q01DX009 (ip), vehicle: Klucel (hydroxypropylcellulose) (HPC) 110 % of control | endpoint: mean survival time, dose: 58.0 mg/kg/injection, schedule: Q01DX009 (ip), vehicle: Klucel (hydroxypropylcellulose) (HPC) 101 % of control

Nc1ccc2nsnc2c1
inactive: endpoint: mean survival time, dose: 50.0 mg/kg/injection, schedule: Q01DX001 (ip), vehicle: Klucel (hydroxypropylcellulose) (HPC) 105 % of control | endpoint: mean survival time, dose: 100.0 mg/kg/injection, schedule: Q01DX001 (ip), vehicle: Klucel (hydroxypropylcellulose) (HPC) 90 % of control | endpoint: mean survival time, dose: 200.0 mg/kg/injection, schedule: Q01DX001 (ip), vehicle: Klucel (hydroxypropylcellulose) (HPC) 103 % of control

CC(=O)c1ccc2c(c1)-c1ccc(C(C)=O)cc1-2
inactive: [1] 86 % of control | [2] 86 % of control | endpoint: mean survival time, dose: 400.0 mg/kg/injection, schedule: Q04DX003 (ip), vehicle: saline with Tween-80 90 % of control

CN(C)c1ccc(C2(O)C3CCC2CC3)cc1 (centres undefined)
inactive: endpoint: median survival time, dose: 25.0 mg/kg/injection, schedule: Q04DX002 (ip), vehicle: saline with Tween-80 90 % of control | endpoint: median survival time, dose: 50.0 mg/kg/injection, schedule: Q04DX002 (ip), vehicle: saline with Tween-80 100 % of control | endpoint: median survival time, dose: 100.0 mg/kg/injection, schedule: Q04DX002 (ip), vehicle: saline with Tween-80 90 % of control

CCOC(=O)/C=C(\C)Sc1ccc(Cl)cc1
inactive: endpoint: mean survival time, dose: 100.0 mg/kg/injection, schedule: Q04DX003 (ip), vehicle: alcohol 92 % of control | endpoint: mean survival time, dose: 200.0 mg/kg/injection, schedule: Q04DX003 (ip), vehicle: alcohol 87 % of control | endpoint: mean survival time, dose: 400.0 mg/kg/injection, schedule: Q04DX003 (ip), vehicle: alcohol 102 % of control

CCOC(=O)CCC(C#N)(CC(=O)OCC)C(=O)OCC (centres undefined)
inactive: [3] 96 % of control | [4] 104 % of control | [5] 104 % of control

O=C1OC2(c3ccc(Cl)cc3Oc3cc(Cl)ccc32)c2ccccc21
inactive: endpoint: mean survival time, dose: 100.0 mg/kg/injection, schedule: Q04DX002 (ip), vehicle: Klucel (hydroxypropylcellulose) (HPC) 101 % of control | endpoint: mean survival time, dose: 200.0 mg/kg/injection, schedule: Q04DX002 (ip), vehicle: Klucel (hydroxypropylcellulose) (HPC) 97 % of control | endpoint: mean survival time, dose: 400.0 mg/kg/injection, schedule: Q04DX002 (ip), vehicle: Klucel (hydroxypropylcellulose) (HPC) 89 % of control

N#CC(C#N)=C1CCN2CCCc3cccc1c32
inactive: [3] 100 % of control | [4] 95 % of control | [5] 111 % of control

CCN(CC)[S+](C)(=O)/C=C(\[O-])Nc1ccccc1 (centres undefined)
inactive: endpoint: mean survival time, dose: 25.0 mg/kg/injection, schedule: Q01DX001 (ip), vehicle: other 103 % of control | endpoint: mean survival time, dose: 50.0 mg/kg/injection, schedule: Q01DX001 (ip), vehicle: other 94 % of control | endpoint: mean survival time, dose: 100.0 mg/kg/injection, schedule: Q01DX001 (ip), vehicle: other 90 % of control

COC1CCC2=C(C1)C(=O)CC1c3ccccc3CCN21 (centres undefined) (tested in a mixture with another compound)
inactive: endpoint: mean survival time, dose: 6.25 mg/kg/injection, schedule: Q01DX009 (ip), vehicle: saline with Tween-80 96 % of control | endpoint: mean survival time, dose: 12.5 mg/kg/injection, schedule: Q01DX009 (ip), vehicle: saline with Tween-80 98 % of control | endpoint: mean survival time, dose: 25.0 mg/kg/injection, schedule: Q01DX009 (ip), vehicle: saline with Tween-80 96 % of control

CCOC(=O)C(C(=O)OCC)=C1CCC(=O)O1
inactive: endpoint: mean survival time, dose: 100.0 mg/kg/injection, schedule: Q04DX002 (ip), vehicle: saline with Tween-80 111 % of control | endpoint: mean survival time, dose: 200.0 mg/kg/injection, schedule: Q04DX002 (ip), vehicle: saline with Tween-80 90 % of control

CSc1ncnc2c1cnn2C1OC(COC(C)=O)C(OC(C)=O)C1OC(C)=O (centres undefined)
inactive: endpoint: median survival time, dose: 9.0 mg/kg/injection, schedule: Q01DX005 (ip), vehicle: distilled water + Tween-80 101 % of control | endpoint: median survival time, dose: 9.0 mg/kg/injection, schedule: Q01DX009 (ip), vehicle: distilled water + Tween-80 100 % of control | endpoint: median survival time, dose: 18.0 mg/kg/injection, schedule: Q01DX005 (ip), vehicle: distilled water + Tween-80 98 % of control | endpoint: median survival time, dose: 18.0 mg/kg/injection, schedule: Q01DX009 (ip), vehicle: distilled water + Tween-80 101 % of control | endpoint: median survival time, dose: 36.0 mg/kg/injection, schedule: Q01DX005 (ip), vehicle: distilled water + Tween-80 108 % of control | endpoint: median survival time, dose: 36.0 mg/kg/injection, schedule: Q01DX009 (ip), vehicle: distilled water + Tween-80 100 % of control | endpoint: median survival time, dose: 72.0 mg/kg/injection, schedule: Q01DX009 (ip), vehicle: distilled water + Tween-80 107 % of control | endpoint: median survival time, dose: 144.0 mg/kg/injection, schedule: Q01DX005 (ip), vehicle: distilled water + Tween-80 118 % of control | endpoint: median survival time, dose: 144.0 mg/kg/injection, schedule: Q01DX009 (ip), vehicle: distilled water + Tween-80 113 % of control

COC(=O)c1c(CC#N)ncn1C1OC(COC(C)=O)C(OC(C)=O)C1OC(C)=O (centres undefined)
inactive: endpoint: median survival time, dose: 8.25 mg/kg/injection, schedule: Q01DX005 (ip), vehicle: water 104 % of control | endpoint: median survival time, dose: 11.25 mg/kg/injection, schedule: Q01DX005 (ip), vehicle: water 100 % of control | endpoint: median survival time, dose: 16.5 mg/kg/injection, schedule: Q01DX005 (ip), vehicle: water 101 % of control | endpoint: median survival time, dose: 22.5 mg/kg/injection, schedule: Q01DX005 (ip), vehicle: water 98 % of control | endpoint: median survival time, dose: 33.0 mg/kg/injection, schedule: Q01DX005 (ip), vehicle: water 101 % of control | endpoint: median survival time, dose: 45.0 mg/kg/injection, schedule: Q01DX005 (ip), vehicle: water 101 % of control | endpoint: median survival time, dose: 66.0 mg/kg/injection, schedule: Q01DX005 (ip), vehicle: water 100 % of control | endpoint: median survival time, dose: 90.0 mg/kg/injection, schedule: Q01DX005 (ip), vehicle: water 100 % of control | endpoint: median survival time, dose: 132.0 mg/kg/injection, schedule: Q01DX005 (ip), vehicle: water 101 % of control | endpoint: median survival time, dose: 180.0 mg/kg/injection, schedule: Q01DX005 (ip), vehicle: water 100 % of control
